# In patent US6896892B2, “Insecticide-impregnated fabric and method of production” (The United States of America as represented by the …, priority 2000, dated 2005):
# “Also recorded” adds a separate entry of the source.
# Key:
# [1] = tested on: Anopheles gambiae mosquitoes (Asembo [AB] strain); assay: WHO cone bioassay of impregnated netting, knock-down and mortality, AB strain; assay type: in vivo; conditions: nets 500 mg/m^2 permethrin alone; after one wash/rinse cycle
# Description: (§1) Insectary-reared and sugar-fed Anopheles gambiae mosquitoes (Kisumu [KIS], G3 and Asembo [AB] strains), 3-4 days old, were tested for susceptibility (or resistance) to permethrin-impregnated nets, using the WHO adult mosquito susceptibility test kit. About 20 mosquitoes were used in each assay. Cohort mosquitoes were then used to bioassay the pyrethroid-impregnated netting samples using the WHO cone bioassay with a 3 minute exposure time. During an assay, the cone was held on its side, which placed the net sample in a perpendicular or vertical position with respect to the floor, as is the case when testing an actual hanging net. In each assay 7-12 mosquitoes were used with 3-4 such assays run for each experiment. After exposure for the prescribed time, mortality was determined after the mosquitoes were held overnight (24 hours) in clean cartons with sugar water for nourishment. Final mortality was corrected for control mortality. Knock-down was defined as the number of mosquitoes alive or dead, present on the floor of the carton 30 minutes after exposure. Knock-down is considered to be a more accurate measurement of insecticide efficacy because in the wild any mosquito that falls to the ground serves almost immediately as food for other insects (e.g., ants). Temperature and humidity conducive to the survival of the mosquitoes were maintained.
# [2] = tested on: Anopheles gambiae mosquitoes (Kisumu [KIS] strain); assay: WHO cone bioassay of impregnated netting, knock-down and mortality, KIS strain; assay type: in vivo; conditions: nets 500 mg/m^2 permethrin alone; after five wash/rinse cycles
# Description: as §1
# [3] = tested on: Anopheles gambiae mosquitoes (G3 strain); assay: WHO cone bioassay of impregnated netting, knock-down and mortality, G3 strain; assay type: in vivo; conditions: nets 500 mg/m^2 permethrin alone; two wash/rinse cycles
# Description: as §1
# [4] = tested on: Anopheles gambiae mosquitoes (Kisumu [KIS], G3 and Asembo [AB] strains); assay: WHO cone bioassay of impregnated netting, all strains; assay type: in vivo
# Description: as §1
# [5] = Wash/rinse cycles of netting samples, permethrin removed per cycle; assay type: physicochemical
# Description: Netting samples were repeatedly washed and each wash and rinse solution was analyzed to determine the concentration of impregnated insecticide removed during each wash cycle. After several wash/rinse cycles, when the insecticidal efficacy had become depleted, the residual insecticide on the net was also determined.
# A volume of 100 ml of a standardized detergent (2% aqueous sodium dodecyl sulfate [SDS]) was added to a 4 ounce wide mouth screw-cap bottle. An impregnated net sample (bioassayed beforehand) was folded twice and placed into the SDS solution, and the cap was applied and the bottle was shaken for 5 minutes on a mechanical shaker. After removing the cap, the net sample was removed, wrung out and placed in a 4 ounce bottle containing 100 ml of de-ionized water and shaken for five minutes, after which, the sample was removed, wrung out and left to dry overnight. The sample was rebioassayed the next day and at later times. To each wash solution was added a volume of 100 μl of the appropriate internal standard (IS) solution in acetone, and the contents were vigorously shaken by hand. To the rinse solution was added a 0.5 g quantity of dry SDS, and the contents were shaken to dissolve the SDS. Then a 100 μl volume of IS was added, and the contents were vigorously shaken. Two ml of each wash and rinse solution was then transferred to a 4 ml screw-cap vial, 3 ml of ethyl acetate were added and the contents were shaken. After centrifugation to clarify the ethyl acetate layer, about 1 ml of the ethyl acetate layer of each extract was transferred to an autosampler vial and injected onto the GC system described above to determine insecticide content.
# For washing experiments involving permethrin, the wash and rinse solutions were injected directly onto a reversed-phase, high-performance liquid chromatographic system with ultraviolet (UV) detection, to determine the permethrin content of the solutions.
structure (smiles),measurement,setting,value
"CC1(C)C(C=C(Cl)Cl)C1C(=O)OCc1cccc(Oc2ccccc2)c1 (stereo not drawn) [Permethrin Alone, permethrin]",effectiveness (knock-down and mortality),[1],completely ineffective; also recorded: all effectiveness with this strain was lost
same,knock-down,[2],less than 50%
same,mortality,[2],approximately 20%
same,knock-down,[3],approximately 20%
same,mortality,[3],~10%
same,effectiveness against all strains,"[4]; nets 500 mg/m^2 permethrin alone, six wash/rinse cycles",completely disappeared
same,effectiveness against all strains,"[4]; nets 1000 mg/m^2 permethrin alone, after four washings",lost most of their effectiveness
same,insecticide lost after the first washing,[5]; nets 500 or 1000 mg/m^2 permethrin alone,63-90%
same,Amt (%) washed off during a W/R cycle,"[5]; permethrin alone 500 mg/m^2, W/R = 1",63.0%
same,Amt (%) washed off during a W/R cycle,"[5]; permethrin alone 500 mg/m^2, W/R = 2",4.3%
same,Amt (%) washed off during a W/R cycle,"[5]; permethrin alone 500 mg/m^2, W/R = 3",4.7%
same,Amt (%) washed off during a W/R cycle,"[5]; permethrin alone 500 mg/m^2, W/R = 4",17.5%
same,Amt (%) washed off during a W/R cycle,"[5]; permethrin alone 500 mg/m^2, W/R = 5",7.6%
same,Amt (%) washed off during a W/R cycle,"[5]; permethrin alone 500 mg/m^2, W/R = 6",2.8%
same,Amt (%) washed off during a W/R cycle,"[5]; permethrin alone 1000 mg/m^2, W/R = 1",90.7%
same,Amt (%) washed off during a W/R cycle,"[5]; permethrin alone 1000 mg/m^2, W/R = 2",2.4%
same,Amt (%) washed off during a W/R cycle,"[5]; permethrin alone 1000 mg/m^2, W/R = 3",0.9%
same,Amt (%) washed off during a W/R cycle,"[5]; permethrin alone 1000 mg/m^2, W/R = 4",0.9%
